Test results as given in patent US20100137449A1, “SUBSTITUTED 1,3-CYCLOPENTADIONE MULTI-TARGET PROTEIN KINASE MODULATORS OF CANCER, ANGIOGENESIS AND THE INFLAMMATORY PATHWAYS ASSOCIATED THEREWITH” (METAPROTEOMICS, LLC, priority 2007, published 2010).

Experiments:
Assay in all cases: KinaseProfiler Assay
[1] = biological target: PKCβI(h) (Homo sapiens, UniProt P05771)
[2] = biological target: cKit(D816H)(h) (Homo sapiens, UniProt P10721, D816H)
[3] = biological target: T1, Aurora-A(h) (Homo sapiens, UniProt O14965)
T1 sequence (O14965 1-403): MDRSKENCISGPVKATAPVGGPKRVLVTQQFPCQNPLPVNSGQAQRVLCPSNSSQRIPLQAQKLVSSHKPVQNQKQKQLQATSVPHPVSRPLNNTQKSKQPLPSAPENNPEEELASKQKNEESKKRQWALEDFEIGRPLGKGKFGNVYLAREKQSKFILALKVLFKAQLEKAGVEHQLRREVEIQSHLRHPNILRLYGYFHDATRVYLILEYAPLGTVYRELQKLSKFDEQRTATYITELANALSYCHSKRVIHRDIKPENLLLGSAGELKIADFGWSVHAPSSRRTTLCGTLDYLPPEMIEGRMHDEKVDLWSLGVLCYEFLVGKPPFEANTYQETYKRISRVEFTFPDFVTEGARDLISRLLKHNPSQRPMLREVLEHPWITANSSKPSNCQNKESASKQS

[4] = biological target: T2, EphB1(h) (Homo sapiens, UniProt P54762)
T2 sequence (P54762 18-984): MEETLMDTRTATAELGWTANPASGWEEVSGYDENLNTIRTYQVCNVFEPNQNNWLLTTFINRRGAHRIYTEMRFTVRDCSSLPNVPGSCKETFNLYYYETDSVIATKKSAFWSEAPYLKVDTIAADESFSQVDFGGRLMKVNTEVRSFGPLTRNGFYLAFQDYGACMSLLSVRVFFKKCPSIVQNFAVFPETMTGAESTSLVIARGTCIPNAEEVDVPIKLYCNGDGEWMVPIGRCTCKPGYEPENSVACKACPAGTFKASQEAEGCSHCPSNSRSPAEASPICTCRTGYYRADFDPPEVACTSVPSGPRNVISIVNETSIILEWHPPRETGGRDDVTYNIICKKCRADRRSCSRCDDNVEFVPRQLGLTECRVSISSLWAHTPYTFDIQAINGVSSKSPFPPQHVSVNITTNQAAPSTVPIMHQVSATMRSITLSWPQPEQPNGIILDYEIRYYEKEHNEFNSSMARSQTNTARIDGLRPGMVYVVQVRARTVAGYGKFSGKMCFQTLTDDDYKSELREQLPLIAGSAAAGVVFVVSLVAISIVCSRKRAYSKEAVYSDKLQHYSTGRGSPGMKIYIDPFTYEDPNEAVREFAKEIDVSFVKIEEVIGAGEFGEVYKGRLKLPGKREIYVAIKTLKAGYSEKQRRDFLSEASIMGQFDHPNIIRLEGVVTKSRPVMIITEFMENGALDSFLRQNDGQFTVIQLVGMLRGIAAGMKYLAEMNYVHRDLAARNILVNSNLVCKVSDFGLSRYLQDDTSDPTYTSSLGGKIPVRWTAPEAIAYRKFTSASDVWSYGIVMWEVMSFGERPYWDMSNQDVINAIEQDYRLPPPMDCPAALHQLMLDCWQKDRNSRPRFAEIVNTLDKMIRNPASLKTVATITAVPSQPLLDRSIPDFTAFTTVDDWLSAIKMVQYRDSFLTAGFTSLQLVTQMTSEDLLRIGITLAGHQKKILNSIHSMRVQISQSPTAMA

[5] = biological target: EGFR(T790M)(h) (Homo sapiens, UniProt P00533, T790M)
[6] = biological target: Rsk2(h) (Homo sapiens, UniProt P51812)
[7] = biological target: CaMKIIγ(h) (Homo sapiens, UniProt Q13555)
[8] = biological target: CaMKII(r)
[9] = biological target: TrkA(h) (Homo sapiens, UniProt P04629)
[10] = biological target: EGFR(L861Q)(h) (Homo sapiens, UniProt P00533, L861Q)
[11] = biological target: PKCβII(h) (Homo sapiens, UniProt P05771)
[12] = biological target: CDK2/cyclinE(h) (Homo sapiens, UniProt P24941)

Sequence of CaMKIIγ(h) (Q13555 whole entry): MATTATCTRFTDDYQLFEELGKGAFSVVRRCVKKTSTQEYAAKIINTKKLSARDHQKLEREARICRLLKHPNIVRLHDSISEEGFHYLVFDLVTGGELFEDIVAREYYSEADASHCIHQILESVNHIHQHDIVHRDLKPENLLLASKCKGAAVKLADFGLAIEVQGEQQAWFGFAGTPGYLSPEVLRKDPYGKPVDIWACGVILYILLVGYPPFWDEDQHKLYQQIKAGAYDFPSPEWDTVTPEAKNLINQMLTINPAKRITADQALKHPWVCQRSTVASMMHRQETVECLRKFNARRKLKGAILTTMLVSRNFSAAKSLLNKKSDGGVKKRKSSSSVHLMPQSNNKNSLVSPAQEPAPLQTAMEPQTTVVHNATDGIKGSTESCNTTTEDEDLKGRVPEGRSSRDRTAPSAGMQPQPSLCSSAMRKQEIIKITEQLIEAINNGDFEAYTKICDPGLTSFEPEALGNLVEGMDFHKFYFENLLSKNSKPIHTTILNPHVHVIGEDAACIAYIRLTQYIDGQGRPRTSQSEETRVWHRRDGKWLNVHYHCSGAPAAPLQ
Sequence of PKCβI(h) (P05771 whole entry): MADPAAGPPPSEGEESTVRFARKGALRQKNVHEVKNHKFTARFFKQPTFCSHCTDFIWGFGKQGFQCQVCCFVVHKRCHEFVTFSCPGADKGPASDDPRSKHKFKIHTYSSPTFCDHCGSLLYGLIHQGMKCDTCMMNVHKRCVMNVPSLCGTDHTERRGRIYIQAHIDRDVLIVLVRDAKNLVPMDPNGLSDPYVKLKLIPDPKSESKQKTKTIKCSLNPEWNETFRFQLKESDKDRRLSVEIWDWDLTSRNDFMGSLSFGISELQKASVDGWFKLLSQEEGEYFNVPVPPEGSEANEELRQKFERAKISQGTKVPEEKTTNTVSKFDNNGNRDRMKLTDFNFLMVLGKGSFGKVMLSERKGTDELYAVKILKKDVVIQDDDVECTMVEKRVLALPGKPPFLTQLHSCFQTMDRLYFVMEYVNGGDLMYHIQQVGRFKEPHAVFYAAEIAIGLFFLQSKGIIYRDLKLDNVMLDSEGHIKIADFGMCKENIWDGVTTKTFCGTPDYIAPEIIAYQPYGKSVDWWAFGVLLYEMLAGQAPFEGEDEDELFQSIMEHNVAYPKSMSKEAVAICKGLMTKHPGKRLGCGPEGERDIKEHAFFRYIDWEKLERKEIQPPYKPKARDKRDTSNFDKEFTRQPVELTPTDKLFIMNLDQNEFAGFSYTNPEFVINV
Sequence of EGFR(L861Q)(h) (P00533 25-1210 L861Q): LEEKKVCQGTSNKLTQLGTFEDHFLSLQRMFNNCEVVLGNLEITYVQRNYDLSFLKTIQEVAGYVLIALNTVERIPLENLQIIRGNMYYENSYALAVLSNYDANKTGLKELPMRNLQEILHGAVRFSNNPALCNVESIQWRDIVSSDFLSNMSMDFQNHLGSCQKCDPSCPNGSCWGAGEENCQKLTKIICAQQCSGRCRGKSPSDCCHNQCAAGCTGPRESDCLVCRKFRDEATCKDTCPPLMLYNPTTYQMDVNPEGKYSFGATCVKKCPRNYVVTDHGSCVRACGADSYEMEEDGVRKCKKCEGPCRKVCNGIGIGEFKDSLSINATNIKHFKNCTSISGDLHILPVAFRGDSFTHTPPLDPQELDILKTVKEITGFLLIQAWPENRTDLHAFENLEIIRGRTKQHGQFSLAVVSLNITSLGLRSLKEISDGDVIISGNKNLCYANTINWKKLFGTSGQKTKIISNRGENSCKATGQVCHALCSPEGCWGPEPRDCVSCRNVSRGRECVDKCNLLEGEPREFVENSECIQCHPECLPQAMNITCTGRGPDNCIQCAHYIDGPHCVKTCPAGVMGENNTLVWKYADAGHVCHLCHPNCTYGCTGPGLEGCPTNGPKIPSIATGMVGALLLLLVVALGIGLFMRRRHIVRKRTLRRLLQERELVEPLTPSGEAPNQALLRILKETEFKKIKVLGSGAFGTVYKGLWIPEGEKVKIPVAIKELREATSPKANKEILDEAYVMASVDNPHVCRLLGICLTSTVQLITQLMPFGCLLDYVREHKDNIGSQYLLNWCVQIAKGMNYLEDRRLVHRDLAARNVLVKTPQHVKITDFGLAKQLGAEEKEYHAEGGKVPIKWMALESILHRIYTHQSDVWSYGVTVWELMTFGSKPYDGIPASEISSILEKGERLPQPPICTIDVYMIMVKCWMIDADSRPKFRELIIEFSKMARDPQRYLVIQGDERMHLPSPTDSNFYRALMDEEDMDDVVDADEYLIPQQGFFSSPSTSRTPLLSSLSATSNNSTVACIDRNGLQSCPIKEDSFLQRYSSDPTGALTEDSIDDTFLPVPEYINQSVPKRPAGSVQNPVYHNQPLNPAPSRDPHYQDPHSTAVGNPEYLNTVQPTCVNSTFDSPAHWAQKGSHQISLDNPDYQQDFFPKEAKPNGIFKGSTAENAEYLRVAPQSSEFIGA
Sequence of TrkA(h) (P04629 33-796): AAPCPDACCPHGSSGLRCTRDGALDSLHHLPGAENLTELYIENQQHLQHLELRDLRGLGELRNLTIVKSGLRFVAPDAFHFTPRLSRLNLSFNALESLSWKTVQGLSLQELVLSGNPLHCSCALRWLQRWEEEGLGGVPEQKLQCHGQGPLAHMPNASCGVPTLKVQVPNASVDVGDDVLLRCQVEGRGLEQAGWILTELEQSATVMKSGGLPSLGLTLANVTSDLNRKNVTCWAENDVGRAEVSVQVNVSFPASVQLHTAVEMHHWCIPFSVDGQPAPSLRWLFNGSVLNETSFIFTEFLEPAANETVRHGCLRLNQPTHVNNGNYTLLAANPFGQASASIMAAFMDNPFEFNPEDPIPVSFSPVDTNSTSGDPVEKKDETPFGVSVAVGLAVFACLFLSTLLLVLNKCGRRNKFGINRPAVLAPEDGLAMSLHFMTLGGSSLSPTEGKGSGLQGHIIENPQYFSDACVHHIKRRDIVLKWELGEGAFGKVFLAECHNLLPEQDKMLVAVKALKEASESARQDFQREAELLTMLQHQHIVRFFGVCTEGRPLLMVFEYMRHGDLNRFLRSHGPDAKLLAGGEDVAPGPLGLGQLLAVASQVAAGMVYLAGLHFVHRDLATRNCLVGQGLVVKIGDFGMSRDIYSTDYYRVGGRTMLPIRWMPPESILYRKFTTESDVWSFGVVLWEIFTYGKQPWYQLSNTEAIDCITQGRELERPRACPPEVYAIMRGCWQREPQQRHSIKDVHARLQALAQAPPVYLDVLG
Sequence of cKit(D816H)(h) (P10721 26-976 D816H): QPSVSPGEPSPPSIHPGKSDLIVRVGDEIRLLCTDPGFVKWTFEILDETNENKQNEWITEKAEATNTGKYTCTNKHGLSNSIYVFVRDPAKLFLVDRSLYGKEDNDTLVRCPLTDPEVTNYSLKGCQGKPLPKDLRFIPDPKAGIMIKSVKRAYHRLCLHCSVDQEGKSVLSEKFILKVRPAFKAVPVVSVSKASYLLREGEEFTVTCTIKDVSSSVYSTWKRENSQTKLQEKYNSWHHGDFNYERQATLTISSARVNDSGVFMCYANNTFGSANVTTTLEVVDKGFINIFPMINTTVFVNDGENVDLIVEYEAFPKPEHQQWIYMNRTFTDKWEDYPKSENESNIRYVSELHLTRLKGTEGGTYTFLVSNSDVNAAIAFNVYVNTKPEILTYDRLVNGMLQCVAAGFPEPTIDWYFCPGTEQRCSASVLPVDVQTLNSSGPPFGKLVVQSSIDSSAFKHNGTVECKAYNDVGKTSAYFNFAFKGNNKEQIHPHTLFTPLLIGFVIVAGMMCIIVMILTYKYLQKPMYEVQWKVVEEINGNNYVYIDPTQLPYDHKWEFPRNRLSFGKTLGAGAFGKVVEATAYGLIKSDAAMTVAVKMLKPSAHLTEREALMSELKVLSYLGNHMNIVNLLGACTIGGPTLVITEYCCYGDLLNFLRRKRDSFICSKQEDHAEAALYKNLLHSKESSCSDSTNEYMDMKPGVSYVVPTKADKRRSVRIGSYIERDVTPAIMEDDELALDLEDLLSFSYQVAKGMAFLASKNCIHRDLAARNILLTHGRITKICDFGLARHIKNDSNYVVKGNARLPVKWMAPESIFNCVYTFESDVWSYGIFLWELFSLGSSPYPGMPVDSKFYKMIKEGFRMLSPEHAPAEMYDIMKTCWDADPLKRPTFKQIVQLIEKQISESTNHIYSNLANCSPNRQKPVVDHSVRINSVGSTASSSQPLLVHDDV
Sequence of PKCβII(h) (P05771 1-673 isoform P05771-2): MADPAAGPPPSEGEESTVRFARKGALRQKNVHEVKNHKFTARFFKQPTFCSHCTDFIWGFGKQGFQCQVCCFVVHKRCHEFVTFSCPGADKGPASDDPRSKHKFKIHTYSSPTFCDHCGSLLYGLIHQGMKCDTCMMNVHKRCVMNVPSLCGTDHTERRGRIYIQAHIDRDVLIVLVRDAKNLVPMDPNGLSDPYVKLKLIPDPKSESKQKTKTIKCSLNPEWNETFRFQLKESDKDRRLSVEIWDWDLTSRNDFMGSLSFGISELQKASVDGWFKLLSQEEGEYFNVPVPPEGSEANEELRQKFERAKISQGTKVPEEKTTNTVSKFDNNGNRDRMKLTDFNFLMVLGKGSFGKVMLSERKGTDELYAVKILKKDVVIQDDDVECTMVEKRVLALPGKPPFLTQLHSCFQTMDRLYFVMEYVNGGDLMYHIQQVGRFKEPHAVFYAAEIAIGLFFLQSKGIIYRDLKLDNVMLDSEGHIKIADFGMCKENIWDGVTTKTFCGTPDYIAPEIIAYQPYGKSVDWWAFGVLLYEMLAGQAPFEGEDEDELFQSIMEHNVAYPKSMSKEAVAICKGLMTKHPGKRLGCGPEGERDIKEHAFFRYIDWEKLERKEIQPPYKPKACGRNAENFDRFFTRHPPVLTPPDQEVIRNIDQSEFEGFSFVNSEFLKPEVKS

In the case of `CC(C)CCC(=O)[C@]1(O)C(O)=C(C(=O)C(C)C)C(=O)[C@H]1CCC(C)C` [TH2, tetrahydroiso-cohumulone], the kinase inhibition ([1]; 1 μg/ml) is reported as 105% of control, the kinase inhibition ([1]; 5 μg/ml) is reported as 110% of control and the kinase inhibition ([1]; 25 μg/ml) is reported as 93% of control. For the same compound, the kinase inhibition ([1]; 50 μg/ml) was 95% of control, the kinase inhibition ([1]; 100 μg/ml) was 92% of control and the kinase inhibition ([2]; 1 μg/ml) was 123% of control. The kinase inhibition ([2]; 5 μg/ml) was 116% of control, the kinase inhibition ([2]; 25 μg/ml) was 104% of control and the kinase inhibition ([2]; 50 μg/ml) was 114% of control. For the same compound, the kinase inhibition ([2]; 100 μg/ml) was 108% of control, the kinase inhibition ([3]; 1 μg/ml) was 65% of control and the kinase inhibition ([3]; 5 μg/ml) was 24% of control. For the same compound, the kinase inhibition ([3]; 25 μg/ml) was 71% of control, the kinase inhibition ([3]; 50 μg/ml) was 57% of control and the kinase inhibition ([3]; 100 μg/ml) was 54% of control. For the same compound, the kinase inhibition ([4]; 1 μg/ml) was 127% of control, the kinase inhibition ([4]; 5 μg/ml) was 82% of control and the kinase inhibition ([4]; 25 μg/ml) was 144% of control. For the same compound, the kinase inhibition ([4]; 50 μg/ml) was 195% of control, the kinase inhibition ([4]; 100 μg/ml) was 105% of control and the kinase inhibition ([5]; 1 μg/ml) was 106% of control. For the same compound, the kinase inhibition ([5]; 5 μg/ml) was 104% of control, the kinase inhibition ([5]; 25 μg/ml) was 104% of control and the kinase inhibition ([5]; 50 μg/ml) was 100% of control. The kinase inhibition ([5]; 100 μg/ml) was 102% of control, the kinase inhibition ([6]; 1 μg/ml) was 102% of control and the kinase inhibition ([6]; 5 μg/ml) was 100% of control. For the same compound, the kinase inhibition ([6]; 25 μg/ml) was 81% of control, the kinase inhibition ([6]; 50 μg/ml) was 43% of control and the kinase inhibition ([6]; 100 μg/ml) was 32% of control. For the same compound, the kinase inhibition ([7]; 1 μg/ml) was 109% of control, the kinase inhibition ([7]; 5 μg/ml) was 109% of control and the kinase inhibition ([7]; 25 μg/ml) was 131% of control. For the same compound, the kinase inhibition ([7]; 50 μg/ml) was 108% of control, the kinase inhibition ([7]; 100 μg/ml) was 101% of control and the kinase inhibition ([8]; 1 μg/ml) was 105% of control. For the same compound, the kinase inhibition ([8]; 5 μg/ml) was 106% of control, the kinase inhibition ([8]; 25 μg/ml) was 105% of control and the kinase inhibition ([8]; 50 μg/ml) was 91% of control. The kinase inhibition ([8]; 100 μg/ml) was 63% of control, the kinase inhibition ([9]; 1 μg/ml) was 110% of control and the kinase inhibition ([9]; 5 μg/ml) was 111% of control. The kinase inhibition ([9]; 25 μg/ml) was 99% of control, the kinase inhibition ([9]; 50 μg/ml) was 31% of control and the kinase inhibition ([9]; 100 μg/ml) was 25% of control. The kinase inhibition ([10]; 1 μg/ml) was 98% of control, the kinase inhibition ([10]; 5 μg/ml) was 91% of control and the kinase inhibition ([10]; 25 μg/ml) was 94% of control. For the same compound, the kinase inhibition ([10]; 50 μg/ml) was 99% of control, the kinase inhibition ([10]; 100 μg/ml) was 93% of control and the kinase inhibition ([11]; 1 μg/ml) was 107% of control. For the same compound, the kinase inhibition ([11]; 5 μg/ml) was 105% of control, the kinase inhibition ([11]; 25 μg/ml) was 99% of control and the kinase inhibition ([11]; 50 μg/ml) was 103% of control. The kinase inhibition ([11]; 100 μg/ml) was 98% of control, the kinase inhibition ([12]; 1 μg/ml) was 95% of control and the kinase inhibition ([12]; 5 μg/ml) was 101% of control. The kinase inhibition ([12]; 25 μg/ml) was 93% of control, the kinase inhibition ([12]; 50 μg/ml) was 71% of control and the kinase inhibition ([12]; 100 μg/ml) was 54% of control.
